≈ marks a conversion by molar mass, not a printed value.
What was measured:
Format in all cases: functional
Staphylococcus aureus [1] = test: Antibacterial activity against methicillin-resistant Staphylococcus aureus N315 assessed as inhibition of bacterial growth by continuous dilution method
Enterococcus faecalis = test: Antibacterial activity against Enterococcus faecalis assessed as inhibition of bacterial growth by continuous dilution method
Staphylococcus aureus [2] = test: Antibacterial activity against Staphylococcus aureus assessed as inhibition of bacterial growth by continuous dilution method
Staphylococcus aureus [3] = test: Antibacterial activity against Staphylococcus aureus ATCC 25923 assessed as inhibition of bacterial growth by continuous dilution method
Staphylococcus aureus [4] = test: Antibacterial activity against Staphylococcus aureus ATCC 29213 assessed as inhibition of bacterial growth by continuous dilution method
Klebsiella pneumoniae = test: Antibacterial activity against Klebsiella pneumoniae assessed as inhibition of bacterial growth by continuous dilution method
Escherichia coli [5] = test: Antibacterial activity against Escherichia coli assessed as inhibition of bacterial growth by continuous dilution method
Pseudomonas aeruginosa [6] = test: Antibacterial activity against Pseudomonas aeruginosa assessed as inhibition of bacterial growth by continuous dilution method
Acinetobacter baumannii = test: Antibacterial activity against Acinetobacter baumannii assessed as inhibition of bacterial growth by continuous dilution method
Pseudomonas aeruginosa [7] = test: Antibacterial activity against Pseudomonas aeruginosa ATCC 27853 assessed as inhibition of bacterial growth by continuous dilution method
Escherichia coli [8] = test: Antibacterial activity against Escherichia coli ATCC 25922 assessed as inhibition of bacterial growth by continuous dilution method

CC(=O)Nc1ccc(S(=O)(=O)C/C(=N/NC(=O)Cc2ccccc2)c2nccs2)cc1
MIC (Staphylococcus aureus [1]): 64 µg/mL (≈ 140 µM) | MIC (Enterococcus faecalis): 64 µg/mL (≈ 140 µM) | MIC (Staphylococcus aureus [2]): 256 µg/mL (≈ 561 µM) | MIC (Staphylococcus aureus [3]): 64 µg/mL (≈ 140 µM) | MIC (Staphylococcus aureus [4]): 256 µg/mL (≈ 561 µM) | MIC (Klebsiella pneumoniae): 128 µg/mL (≈ 280 µM) | MIC (Escherichia coli [5]): 256 µg/mL (≈ 561 µM) | MIC (Pseudomonas aeruginosa [6]): 256 µg/mL (≈ 561 µM) | MIC (Acinetobacter baumannii): 256 µg/mL (≈ 561 µM) | MIC (Pseudomonas aeruginosa [7]): 16 µg/mL (≈ 35 µM) | MIC (Escherichia coli [8]): 32 µg/mL (≈ 70.1 µM)

COc1ccc(/C=C(/C(=O)c2nccs2)S(=O)(=O)c2ccc(NC(C)=O)cc2)cc1
MIC (Staphylococcus aureus [1]): 4 µg/mL (≈ 9.04 µM) | MIC (Enterococcus faecalis): 4 µg/mL (≈ 9.04 µM) | MIC (Staphylococcus aureus [2]): 32 µg/mL (≈ 72.3 µM) | MIC (Staphylococcus aureus [3]): 32 µg/mL (≈ 72.3 µM) | MIC (Staphylococcus aureus [4]): 16 µg/mL (≈ 36.2 µM) | MIC (Klebsiella pneumoniae): 32 µg/mL (≈ 72.3 µM) | MIC (Escherichia coli [5]): 32 µg/mL (≈ 72.3 µM) | MIC (Pseudomonas aeruginosa [6]): 128 µg/mL (≈ 289 µM) | MIC (Acinetobacter baumannii): 128 µg/mL (≈ 289 µM) | MIC (Pseudomonas aeruginosa [7]): 128 µg/mL (≈ 289 µM) | MIC (Escherichia coli [8]): 64 µg/mL (≈ 145 µM)

CCCCO/N=C(/CS(=O)(=O)c1ccc(NC(C)=O)cc1)c1nccs1
MIC (Staphylococcus aureus [1]): 64 µg/mL (≈ 162 µM) | MIC (Enterococcus faecalis): 64 µg/mL (≈ 162 µM) | MIC (Staphylococcus aureus [2]): 64 µg/mL (≈ 162 µM) | MIC (Staphylococcus aureus [3]): 128 µg/mL (≈ 324 µM) | MIC (Staphylococcus aureus [4]): 64 µg/mL (≈ 162 µM) | MIC (Klebsiella pneumoniae): 16 µg/mL (≈ 40.5 µM) | MIC (Escherichia coli [5]): 32 µg/mL (≈ 80.9 µM) | MIC (Pseudomonas aeruginosa [6]): 64 µg/mL (≈ 162 µM) | MIC (Acinetobacter baumannii): 128 µg/mL (≈ 324 µM) | MIC (Pseudomonas aeruginosa [7]): 64 µg/mL (≈ 162 µM) | MIC (Escherichia coli [8]): 16 µg/mL (≈ 40.5 µM)

CCCCCCO/N=C(/CS(=O)(=O)c1ccc(N)cc1)c1nccs1
MIC (Staphylococcus aureus [1]): 128 µg/mL (≈ 335 µM) | MIC (Enterococcus faecalis): 8 µg/mL (≈ 21 µM) | MIC (Staphylococcus aureus [2]): 32 µg/mL (≈ 83.9 µM) | MIC (Staphylococcus aureus [3]): 64 µg/mL (≈ 168 µM) | MIC (Staphylococcus aureus [4]): 64 µg/mL (≈ 168 µM) | MIC (Klebsiella pneumoniae): 32 µg/mL (≈ 83.9 µM) | MIC (Escherichia coli [5]): 16 µg/mL (≈ 41.9 µM) | MIC (Pseudomonas aeruginosa [6]): 16 µg/mL (≈ 41.9 µM) | MIC (Acinetobacter baumannii): 64 µg/mL (≈ 168 µM) | MIC (Pseudomonas aeruginosa [7]): 16 µg/mL (≈ 41.9 µM) | MIC (Escherichia coli [8]): 16 µg/mL (≈ 41.9 µM)

CC(=O)Nc1ccc(S(=O)(=O)/C(=C\c2ccc(C(F)(F)F)cc2)C(=O)c2nccs2)cc1
MIC (Staphylococcus aureus [1]): 256 µg/mL (≈ 533 µM) | MIC (Enterococcus faecalis): 128 µg/mL (≈ 266 µM) | MIC (Staphylococcus aureus [2]): 256 µg/mL (≈ 533 µM) | MIC (Staphylococcus aureus [3]): 128 µg/mL (≈ 266 µM) | MIC (Staphylococcus aureus [4]): 128 µg/mL (≈ 266 µM) | MIC (Klebsiella pneumoniae): 256 µg/mL (≈ 533 µM) | MIC (Escherichia coli [5]): 256 µg/mL (≈ 533 µM) | MIC (Pseudomonas aeruginosa [6]): 64 µg/mL (≈ 133 µM) | MIC (Acinetobacter baumannii): 128 µg/mL (≈ 266 µM) | MIC (Pseudomonas aeruginosa [7]): 64 µg/mL (≈ 133 µM) | MIC (Escherichia coli [8]): 256 µg/mL (≈ 533 µM)

CCCCCCCCO/N=C(/CS(=O)(=O)c1ccc(NC(C)=O)cc1)c1nccs1
MIC (Staphylococcus aureus [1]): 64 µg/mL (≈ 142 µM) | MIC (Enterococcus faecalis): 64 µg/mL (≈ 142 µM) | MIC (Staphylococcus aureus [2]): 128 µg/mL (≈ 283 µM) | MIC (Staphylococcus aureus [3]): 64 µg/mL (≈ 142 µM) | MIC (Staphylococcus aureus [4]): 64 µg/mL (≈ 142 µM) | MIC (Klebsiella pneumoniae): 64 µg/mL (≈ 142 µM) | MIC (Escherichia coli [5]): 32 µg/mL (≈ 70.9 µM) | MIC (Pseudomonas aeruginosa [6]): 64 µg/mL (≈ 142 µM) | MIC (Acinetobacter baumannii): 128 µg/mL (≈ 283 µM) | MIC (Pseudomonas aeruginosa [7]): 64 µg/mL (≈ 142 µM) | MIC (Escherichia coli [8]): 16 µg/mL (≈ 35.4 µM)

CC(=O)Nc1ccc(S(=O)(=O)/C(=C\c2ccc(Cl)cc2Cl)C(=O)c2nccs2)cc1
MIC (Staphylococcus aureus [1]): 128 µg/mL (≈ 266 µM) | MIC (Enterococcus faecalis): 128 µg/mL (≈ 266 µM) | MIC (Staphylococcus aureus [2]): 128 µg/mL (≈ 266 µM) | MIC (Staphylococcus aureus [3]): 64 µg/mL (≈ 133 µM) | MIC (Staphylococcus aureus [4]): 256 µg/mL (≈ 532 µM) | MIC (Klebsiella pneumoniae): 128 µg/mL (≈ 266 µM) | MIC (Escherichia coli [5]): 256 µg/mL (≈ 532 µM) | MIC (Pseudomonas aeruginosa [6]): 128 µg/mL (≈ 266 µM) | MIC (Acinetobacter baumannii): 256 µg/mL (≈ 532 µM) | MIC (Pseudomonas aeruginosa [7]): 128 µg/mL (≈ 266 µM) | MIC (Escherichia coli [8]): 256 µg/mL (≈ 532 µM)

CCCCCCCCO/N=C(/CS(=O)(=O)c1ccc(N)cc1)c1nccs1
MIC (Staphylococcus aureus [1]): 64 µg/mL (≈ 156 µM) | MIC (Enterococcus faecalis): 32 µg/mL (≈ 78.1 µM) | MIC (Staphylococcus aureus [2]): 128 µg/mL (≈ 313 µM) | MIC (Staphylococcus aureus [3]): 32 µg/mL (≈ 78.1 µM) | MIC (Staphylococcus aureus [4]): 64 µg/mL (≈ 156 µM) | MIC (Klebsiella pneumoniae): 32 µg/mL (≈ 78.1 µM) | MIC (Escherichia coli [5]): 32 µg/mL (≈ 78.1 µM) | MIC (Pseudomonas aeruginosa [6]): 64 µg/mL (≈ 156 µM) | MIC (Acinetobacter baumannii): 64 µg/mL (≈ 156 µM) | MIC (Pseudomonas aeruginosa [7]): 16 µg/mL (≈ 39.1 µM) | MIC (Escherichia coli [8]): 32 µg/mL (≈ 78.1 µM)

CC(=O)Nc1ccc(S(=O)(=O)/C(=C\c2ccc([N+](=O)[O-])cc2)C(=O)c2nccs2)cc1
MIC (Staphylococcus aureus [1]): 128 µg/mL (≈ 280 µM) | MIC (Enterococcus faecalis): 128 µg/mL (≈ 280 µM) | MIC (Staphylococcus aureus [2]): 256 µg/mL (≈ 560 µM) | MIC (Staphylococcus aureus [3]): 256 µg/mL (≈ 560 µM) | MIC (Staphylococcus aureus [4]): 256 µg/mL (≈ 560 µM) | MIC (Klebsiella pneumoniae): 128 µg/mL (≈ 280 µM) | MIC (Escherichia coli [5]): 32 µg/mL (≈ 69.9 µM) | MIC (Pseudomonas aeruginosa [6]): 64 µg/mL (≈ 140 µM) | MIC (Acinetobacter baumannii): 256 µg/mL (≈ 560 µM) | MIC (Pseudomonas aeruginosa [7]): 64 µg/mL (≈ 140 µM) | MIC (Escherichia coli [8]): 64 µg/mL (≈ 140 µM)

Nc1ccc(S(=O)(=O)C/C(=N/O)c2nccs2)cc1
MIC (Staphylococcus aureus [1]): 128 µg/mL (≈ 430 µM) | MIC (Enterococcus faecalis): 128 µg/mL (≈ 430 µM) | MIC (Staphylococcus aureus [2]): 128 µg/mL (≈ 430 µM) | MIC (Staphylococcus aureus [3]): 64 µg/mL (≈ 215 µM) | MIC (Staphylococcus aureus [4]): 64 µg/mL (≈ 215 µM) | MIC (Klebsiella pneumoniae): 64 µg/mL (≈ 215 µM) | MIC (Escherichia coli [5]): 32 µg/mL (≈ 108 µM) | MIC (Pseudomonas aeruginosa [6]): 128 µg/mL (≈ 430 µM) | MIC (Acinetobacter baumannii): 256 µg/mL (≈ 861 µM) | MIC (Pseudomonas aeruginosa [7]): 64 µg/mL (≈ 215 µM) | MIC (Escherichia coli [8]): 16 µg/mL (≈ 53.8 µM)

CC(=O)Nc1ccc(S(=O)(=O)C/C(=N/Nc2ccccc2)c2nccs2)cc1
MIC (Staphylococcus aureus [1]): 128 µg/mL (≈ 309 µM) | MIC (Enterococcus faecalis): 128 µg/mL (≈ 309 µM) | MIC (Staphylococcus aureus [2]): 256 µg/mL (≈ 618 µM) | MIC (Staphylococcus aureus [3]): 256 µg/mL (≈ 618 µM) | MIC (Staphylococcus aureus [4]): 256 µg/mL (≈ 618 µM) | MIC (Klebsiella pneumoniae): 256 µg/mL (≈ 618 µM) | MIC (Escherichia coli [5]): 256 µg/mL (≈ 618 µM) | MIC (Pseudomonas aeruginosa [6]): 256 µg/mL (≈ 618 µM) | MIC (Acinetobacter baumannii): 64 µg/mL (≈ 154 µM) | MIC (Pseudomonas aeruginosa [7]): 256 µg/mL (≈ 618 µM) | MIC (Escherichia coli [8]): 256 µg/mL (≈ 618 µM)

CC(=O)Nc1ccc(S(=O)(=O)C/C(=N/Nc2ccc(Cl)cc2)c2nccs2)cc1
MIC (Staphylococcus aureus [1]): 256 µg/mL (≈ 570 µM) | MIC (Enterococcus faecalis): 64 µg/mL (≈ 143 µM) | MIC (Staphylococcus aureus [2]): 128 µg/mL (≈ 285 µM) | MIC (Staphylococcus aureus [3]): 256 µg/mL (≈ 570 µM) | MIC (Staphylococcus aureus [4]): 128 µg/mL (≈ 285 µM) | MIC (Klebsiella pneumoniae): 256 µg/mL (≈ 570 µM) | MIC (Escherichia coli [5]): 128 µg/mL (≈ 285 µM) | MIC (Pseudomonas aeruginosa [6]): 256 µg/mL (≈ 570 µM) | MIC (Acinetobacter baumannii): 256 µg/mL (≈ 570 µM) | MIC (Pseudomonas aeruginosa [7]): 128 µg/mL (≈ 285 µM) | MIC (Escherichia coli [8]): 128 µg/mL (≈ 285 µM)

CCO/N=C(/CS(=O)(=O)c1ccc(NC(C)=O)cc1)c1nccs1
MIC (Staphylococcus aureus [1]): 64 µg/mL (≈ 174 µM) | MIC (Enterococcus faecalis): 32 µg/mL (≈ 87.1 µM) | MIC (Staphylococcus aureus [2]): 128 µg/mL (≈ 348 µM) | MIC (Staphylococcus aureus [3]): 128 µg/mL (≈ 348 µM) | MIC (Staphylococcus aureus [4]): 64 µg/mL (≈ 174 µM) | MIC (Klebsiella pneumoniae): 64 µg/mL (≈ 174 µM) | MIC (Escherichia coli [5]): 32 µg/mL (≈ 87.1 µM) | MIC (Pseudomonas aeruginosa [6]): 128 µg/mL (≈ 348 µM) | MIC (Acinetobacter baumannii): 256 µg/mL (≈ 697 µM) | MIC (Pseudomonas aeruginosa [7]): 64 µg/mL (≈ 174 µM) | MIC (Escherichia coli [8]): 16 µg/mL (≈ 43.5 µM)

— ChEMBL document CHEMBL5325403, “Benzenesulfonyl thiazoloimines as unique multitargeting antibacterial agents towards Enterococcus faecalis” (Eur J Med Chem, 2023)
